Test results: ChEMBL document CHEMBL4011618, “Discovery of Potent, Selective Stem Cell Factor Receptor/Platelet Derived Growth Factor Receptor Alpha (c-KIT/PDGFRα) Dual Inhibitor for the Treatment of Imatinib-Resistant Gastrointestinal Stromal Tumors (GISTs)” (J Med Chem, 2017)
Activity calls are given as the source filed them. The calls are words filed in the database; no cut-off is given here.

Tests used:
[1] = Antiproliferative activity against mouse BAF3 cells assessed as cell growth inhibition after 72 hrs by cell titer-glo assay; type: cell-based
[2] = Antiproliferative activity against CHL cells assessed as cell growth inhibition after 72 hrs by cell titer-glo assay; type: cell-based, Cricetulus griseus; details: chinese hamster
[3] = Antiproliferative activity against CHO cells assessed as cell growth inhibition after 72 hrs by cell titer-glo assay; type: cell-based, Cricetulus griseus; details: chinese hamster
GISTT1 [4] = assay: Antiproliferative activity against human GISTT1 cells assessed as cell growth inhibition after 72 hrs by cell titer-glo assay; type: functional; details: GISTT1, 72 h
GIST882 = assay: Antiproliferative activity against human GIST882 cells assessed as cell growth inhibition after 72 hrs by cell titer-glo assay; type: functional; details: GIST882, 72 h
[5] = Antiproliferative activity against human GIST48B cells assessed as cell growth inhibition after 72 hrs by cell titer-glo assay; type: functional
KU812 cell line = assay: Antiproliferative activity against human KU812 cells assessed as cell growth inhibition after 72 hrs by cell titer-glo assay; type: functional; details: KU812, 72 h
MEG-01 = assay: Antiproliferative activity against human MEG01 cells assessed as cell growth inhibition after 72 hrs by cell titer-glo assay; type: functional; details: MEG-01, 72 h
GISTT1 [6] = assay: Antitumor activity against human GISTT1 cells xenografted in nu/nu mouse assessed as tumor growth inhibition at 100 mg/kg, ip administered daily for 28 days relative to control; type: functional; details: 672 h, read-out: TGI
[7] = system: Mast/stem cell growth factor receptor Kit (Homo sapiens), P10721 [C674S]
Description: Inhibition of TEL-fused cKIT C674S mutant (unknown origin) expressed in mouse BAF3 cells assessed as cell growth inhibition after 72 hrs by cell titer-glo assay

[8] = system: Platelet-derived growth factor receptor alpha (Homo sapiens), P16234 [T674I]
Sequence of Platelet-derived growth factor receptor alpha (Homo sapiens), P16234 [T674I] (P16234 whole entry T674I): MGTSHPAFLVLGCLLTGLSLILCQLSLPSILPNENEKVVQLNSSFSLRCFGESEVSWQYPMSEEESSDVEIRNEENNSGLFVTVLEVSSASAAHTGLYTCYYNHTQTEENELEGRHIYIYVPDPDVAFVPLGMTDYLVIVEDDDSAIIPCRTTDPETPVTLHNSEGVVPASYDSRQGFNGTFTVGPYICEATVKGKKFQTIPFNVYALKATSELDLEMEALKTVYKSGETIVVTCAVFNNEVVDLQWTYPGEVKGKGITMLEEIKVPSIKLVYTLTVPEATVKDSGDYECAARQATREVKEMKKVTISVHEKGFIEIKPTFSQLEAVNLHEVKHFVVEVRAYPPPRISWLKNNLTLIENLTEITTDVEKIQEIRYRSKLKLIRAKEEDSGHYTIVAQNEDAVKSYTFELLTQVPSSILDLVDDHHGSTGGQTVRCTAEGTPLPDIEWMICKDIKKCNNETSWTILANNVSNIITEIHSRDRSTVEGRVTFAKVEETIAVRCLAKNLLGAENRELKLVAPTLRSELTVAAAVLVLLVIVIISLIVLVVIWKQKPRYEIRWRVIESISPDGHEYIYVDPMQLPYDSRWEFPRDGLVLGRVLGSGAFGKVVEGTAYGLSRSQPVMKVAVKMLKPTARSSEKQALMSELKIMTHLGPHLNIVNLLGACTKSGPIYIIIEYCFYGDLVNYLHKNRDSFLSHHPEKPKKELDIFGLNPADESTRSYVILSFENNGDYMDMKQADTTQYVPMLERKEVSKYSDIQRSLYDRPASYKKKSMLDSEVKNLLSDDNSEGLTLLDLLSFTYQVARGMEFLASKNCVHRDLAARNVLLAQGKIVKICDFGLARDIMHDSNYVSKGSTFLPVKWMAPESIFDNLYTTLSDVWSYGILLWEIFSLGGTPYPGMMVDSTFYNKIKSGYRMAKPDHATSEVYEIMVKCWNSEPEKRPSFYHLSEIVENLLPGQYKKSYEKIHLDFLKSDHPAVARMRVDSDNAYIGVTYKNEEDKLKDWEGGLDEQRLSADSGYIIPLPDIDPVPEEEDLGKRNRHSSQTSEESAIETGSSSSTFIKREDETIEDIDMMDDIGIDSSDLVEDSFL
Description: Inhibition of TEL-fused PDGFRalpha T674I mutant (unknown origin) expressed in mouse BAF3 cells assessed as cell growth inhibition after 72 hrs by cell titer-glo assay

[9] = system: Mast/stem cell growth factor receptor Kit (Homo sapiens), P10721 [L576P]
Description: Inhibition of TEL-fused cKIT L576P mutant (unknown origin) expressed in mouse BAF3 cells assessed as cell growth inhibition after 72 hrs by cell titer-glo assay

[10] = system: Mast/stem cell growth factor receptor Kit (Homo sapiens), P10721 [V654A]
Description: Inhibition of TEL-fused cKIT V654A mutant (unknown origin) expressed in mouse BAF3 cells assessed as cell growth inhibition after 72 hrs by cell titer-glo assay

[11] = system: Mast/stem cell growth factor receptor Kit (Homo sapiens), P10721 [V559D,V654A]
[12] = system: Mast/stem cell growth factor receptor Kit (Homo sapiens), P10721 [A829P]
Sequence of Mast/stem cell growth factor receptor Kit (Homo sapiens), P10721 [A829P] (P10721 whole entry A829P): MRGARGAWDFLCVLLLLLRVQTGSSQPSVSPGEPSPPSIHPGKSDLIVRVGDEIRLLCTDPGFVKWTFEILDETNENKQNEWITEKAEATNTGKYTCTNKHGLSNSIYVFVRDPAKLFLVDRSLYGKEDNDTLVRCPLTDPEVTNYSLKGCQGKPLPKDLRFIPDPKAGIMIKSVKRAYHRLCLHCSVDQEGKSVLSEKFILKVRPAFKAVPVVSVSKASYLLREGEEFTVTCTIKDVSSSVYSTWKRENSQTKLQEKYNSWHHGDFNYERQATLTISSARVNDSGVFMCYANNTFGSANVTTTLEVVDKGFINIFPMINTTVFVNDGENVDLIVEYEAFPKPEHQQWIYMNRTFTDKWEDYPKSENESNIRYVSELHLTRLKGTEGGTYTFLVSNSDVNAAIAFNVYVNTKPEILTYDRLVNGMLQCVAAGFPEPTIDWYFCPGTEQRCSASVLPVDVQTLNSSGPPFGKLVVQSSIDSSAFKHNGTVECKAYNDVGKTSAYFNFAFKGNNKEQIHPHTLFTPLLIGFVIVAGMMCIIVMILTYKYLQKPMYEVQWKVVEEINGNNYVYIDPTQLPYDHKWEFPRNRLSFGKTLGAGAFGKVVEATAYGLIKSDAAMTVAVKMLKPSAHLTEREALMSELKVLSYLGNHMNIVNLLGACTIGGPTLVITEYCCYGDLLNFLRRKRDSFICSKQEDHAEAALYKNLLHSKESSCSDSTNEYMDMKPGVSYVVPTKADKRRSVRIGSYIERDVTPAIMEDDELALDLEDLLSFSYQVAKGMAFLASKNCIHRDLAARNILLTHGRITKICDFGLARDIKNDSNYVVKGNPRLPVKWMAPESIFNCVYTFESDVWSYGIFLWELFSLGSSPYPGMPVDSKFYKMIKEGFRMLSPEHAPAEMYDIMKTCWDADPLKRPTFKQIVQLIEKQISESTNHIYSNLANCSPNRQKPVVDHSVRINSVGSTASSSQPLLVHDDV
Description: Inhibition of TEL-fused cKIT A829P mutant (unknown origin) expressed in mouse BAF3 cells assessed as cell growth inhibition after 72 hrs by cell titer-glo assay

[13] = system: Mast/stem cell growth factor receptor Kit (Homo sapiens), P10721 [N822K]
Sequence of Mast/stem cell growth factor receptor Kit (Homo sapiens), P10721 [N822K] (P10721 whole entry N822K): as the sequence (P10721 whole entry A829P) above, with N822K, P829A counted along it
Description: Inhibition of TEL-fused cKIT N822K mutant (unknown origin) expressed in mouse BAF3 cells assessed as cell growth inhibition after 72 hrs by cell titer-glo assay

BaF3 = details: Mus musculus
Description: Antitumor activity against mouse BAF3 cells harboring TEL-cKIT-T670I mutant allografted in nu/nu mouse assessed as tumor growth inhibition at 100 mg/kg, ip administered daily for 11 days relative to control

[14] = target: T1, Platelet-derived growth factor receptor alpha (Homo sapiens, UniProt P16234); assay: Inhibition of PDGFRalpha (unknown origin) using FAM-labeled peptide as substrate preincubated for 10 mins followed by substrate addition in presence of ATP by mobility shift assay
T1 sequence (P16234 whole entry): as the sequence (P16234 whole entry T674I) above, with I674T counted along it

[15] = target: Fibroblast growth factor receptor 1 (Homo sapiens, UniProt P11362); assay: Inhibition of FGFR1 (unknown origin) using FAM-labeled peptide as substrate preincubated for 10 mins followed by substrate addition in presence of ATP by mobility shift assay
[16] = target: Platelet-derived growth factor receptor beta (Homo sapiens, UniProt P09619); assay: Inhibition of PDGFRbeta (unknown origin) using FAM-labeled peptide as substrate preincubated for 10 mins followed by substrate addition in presence of ATP by mobility shift assay
[17] = target: Receptor-type tyrosine-protein kinase FLT3 (Homo sapiens, UniProt P36888); assay: Inhibition of FLT3 (unknown origin) using FAM-labeled peptide as substrate preincubated for 10 mins followed by substrate addition in presence of ATP by mobility shift assay
[18] = target: Vascular endothelial growth factor receptor 1 (Homo sapiens, UniProt P17948); assay: Inhibition of VEGFR1 (unknown origin) using FAM-labeled peptide as substrate preincubated for 10 mins followed by substrate addition in presence of ATP by mobility shift assay
[19] = target: Vascular endothelial growth factor receptor 3 (Homo sapiens, UniProt P35916); assay: Inhibition of VEGFR3 (unknown origin) using FAM-labeled peptide as substrate preincubated for 10 mins followed by substrate addition in presence of ATP by mobility shift assay
[20] = target: Vascular endothelial growth factor receptor 2 (Homo sapiens, UniProt P35968)
Description: Inhibition of VEGFR2 (unknown origin) using FAM-labeled peptide as substrate preincubated for 10 mins followed by substrate addition in presence of ATP by mobility shift assay

[21] = target: T2, Mast/stem cell growth factor receptor Kit (Homo sapiens, UniProt P10721)
T2 sequence (P10721 whole entry): as the sequence (P10721 whole entry A829P) above, with P829A counted along it
Description: Inhibition of cKIT (unknown origin) using FAM-labeled peptide as substrate preincubated for 10 mins followed by substrate addition in presence of ATP by mobility shift assay

[22] = target: T2, Mast/stem cell growth factor receptor Kit; remark: listed apart in the source
Description: Inhibition of TEL-fused cKIT (unknown origin) expressed in mouse BAF3 cells assessed as cell growth inhibition after 72 hrs by cell titer-glo assay

[23] = system: Mast/stem cell growth factor receptor Kit (Homo sapiens), P10721 [T670I]
Description: Inhibition of TEL-fused cKIT T670I mutant (unknown origin) expressed in mouse BAF3 cells assessed as cell growth inhibition after 72 hrs by cell titer-glo assay

[24] = target: T1, Platelet-derived growth factor receptor alpha
Description: Inhibition of TEL-fused PDGFRalpha (unknown origin) expressed in mouse BAF3 cells assessed as cell growth inhibition after 72 hrs by cell titer-glo assay

Cc1ccc(NC(=O)c2ccc(CN3CCN(C)CC3)cc2)cc1Nc1nccc(-c2cccnc2)n1 [IMATINIB]
GI50 at 72 h [1]: 4690 nM | GI50 at 72 h [2]: > 10000 nM | GI50 at 72 h [3]: > 10000 nM | GI50 (GISTT1 [4]): 3 nM | GI50 (GIST882): 20 nM | GI50 [5]: 6990 nM | GI50 (KU812 cell line): 110 nM | GI50 (MEG-01): 45 nM | inhibition in vivo at 100 mg/kg (GISTT1 [6]): 87.3% | GI50 [7]: 24.9 nM | GI50 [8]: > 10000 nM | GI50 [9]: 45.1 nM | GI50 [10]: 803 nM | GI50 [11]: 803 nM | GI50 [12]: 148 nM | GI50 [13]: 1470 nM | TGI (BaF3): inactive

Cc1cccc(NC(=O)Nc2ccc(-c3ccnc4[nH]nc(C)c34)cc2)c1
IC50 [14]: 40 nM | IC50 [15]: > 50000 nM | IC50 [16]: 197 nM | IC50 [17]: 1880 nM | IC50 [18]: 3490 nM | IC50 [19]: 376 nM | IC50 [20]: 1230 nM | IC50 [21]: 2.1 nM | GI50 [22]: 248 nM | GI50 [23]: 318 nM | GI50 [24]: 10.4 nM | GI50 [8]: 1170 nM
